Experimental data taken from patent US4185152A, “Thiazolidinyl alkoxy pyridines” (Warner-Lambert Company, priority 1971, dated 1980).
Read-outs that look alike come from different tables or passages of the source.

How the values were obtained:
[1] = approximate LD50 (acute toxicity, antiradiation activity table); conditions: mouse, in vivo, ip, mice, intraperitoneal
[2] = test system: mice exposed to X-ray or gamma ray radiation; assay: antiradiation test, 30-day survival of irradiated mice; assay type: in vivo; conditions: Mus musculus, light or radiation study, ip, i.p., 950 R cobalt-60 gamma or 825 R X-ray, read-out: Survival (30 days)
Description: The compounds of the invention are new chemical compounds that are useful as pharmacological agents, especially as antiradiation agents that are active in protecting against the effects of exposure to X-ray or gamma ray radiation.
In this table, the activity of each compound is expressed in terms of the percentage of animals that survived (30 days) the exposure to radiation at the given dose. The dose given is generally the lowest dose at which a high rate of survival was obtained. Administration was by the intraperitoneal route. Except where indicated otherwise, each compound was administered as the monohydrochloride salt to a test group consisting of 15 mice. The radiation dose was either 950 Roentgens supplied by a cobalt-60 gamma ray source or 825 Roentgens from an X-ray source.

[3] = 0.25 h, pre-irradiation time 15 min., 15 mice, monohydrochloride
[4] = 0.5 h, pre-irradiation time 30 min., 15 mice, monohydrochloride

SMILES: Brc1ccc(OCCCN2CCSC2)nc1.Cl [Br 3, 5-bromo-2-[3-(3-thiazolidinyl)propoxy]pyridine, monohydrochloride]
- LD50 ([1]; monohydrochloride salt): ~250 mg/kg
- responders at 100 mg/kg [2, 3]: 33%

SMILES: Brc1ccc(OCCCCCN2CCSC2)nc1.Cl [Br 5, 5-Bromo-2-{[5-(3-thiazolidinyl)pentyl]oxy}-pyridine, monohydrochloride]
- LD50 ([1]; monohydrochloride salt): ~240 mg/kg
- responders at 90 mg/kg ([2]; 0.5 h, dose 90 mg./kg., pre-irradiation time 30 min., six mice, monohydrochloride): 83%
- responders at 180 mg/kg ([2]; 0.5 h, dose 180 mg./kg., pre-irradiation time 30 min., six mice, monohydrochloride): 100%

SMILES: Brc1ccc(OCCCCCCCCN2CCSC2)nc1.Cl [Br 8, 5-Bromo-2-{[8-(3-thiazolidinyl)octyl]oxy}-pyridine, monohydrochloride]
- LD50 ([1]; monohydrochloride salt): ~230 mg/kg
- responders at 50 mg/kg ([2]; 0.5 h, dose 50 mg./kg., pre-irradiation time 30 min., 15 mice, monohydrochloride): 20%

SMILES: Cc1ccc(OCCCCCN2CCSC2)nc1 [CH3 5, 5-methyl-2-{[5-(3-thiazolidinyl)pentyl]-oxy}pyridine]
- LD50 ([1]; dihydrochloride salt): ~190 mg/kg
- responders at 70 mg/kg ([2]; 0.5 h, dose 70 mg./kg., pre-irradiation time 30 min., 15 mice, dihydrochloride): 33%

SMILES: Cl.Cl.Clc1ccc(OCCCCCN2CCSC2)nc1 [Cl 5, 5-Chloro-2-{[5-(3-thiazolidinyl)pentyl]-oxy}pyridine, dihydrochloride]
- LD50 ([1]; dihydrochloride salt): ~160 mg/kg
- responders at 80 mg/kg ([2]; 0.25 h, pre-irradiation time 15 min., 15 mice, dihydrochloride): 87%
- responders at 80 mg/kg ([2]; 0.5 h, pre-irradiation time 30 min., 15 mice, dihydrochloride): 93%

SMILES: Cl.Ic1ccc(OCCCCN2CCSC2)nc1 [I 4, 5-iodo-2-[4-(3-thiazolidinyl)-butoxy]pyridine, monohydrochloride]
- LD50 ([1]; monohydrochloride salt): > 300 mg/kg
- responders at 100 mg/kg [2, 3]: 20%

SMILES: Cl.Ic1ccc(OCCCCCN2CCSC2)nc1 [I 5, 5-Iodo-2-{[5-(3-thiazolidinyl)pentyl]oxy}-pyridine, monohydrochloride]
- LD50 ([1]; monohydrochloride salt): ~230 mg/kg
- responders at 100 mg/kg [2, 4]: 93%

SMILES: Cl.Ic1ccc(OCCCCCCCN2CCSC2)nc1 [I 7, 5-Iodo-2-{[7-(3-thiazolidinyl)heptyl]oxy}-pyridine, monohydrochloride]
- LD50 ([1]; monohydrochloride salt): ~200 mg/kg
- responders at 100 mg/kg [2, 4]: 47%
